Laboratory results as given in publication PMC5390467, “Novel lead structures with both Plasmodium falciparum gametocytocidal and asexual blood stage activity identified from high throughput compound screening” (Malaria Journal, 2017).
Values joined by “and” are separate entries in the source; they are usually repeats but may differ in a detail not shown here. Equal entries are not always repeated.

Columns and labels:
[1] = tested on: P. falciparum NF54 asexual parasites; experiment: asexual parasite growth inhibition assay (SYBR Green); type: cell-based, Plasmodium falciparum; settings: 72 h, mean ± SD, n = 3
Procedure: Asexual parasites of P. falciparum strain NF54 were cultured as described previously. Briefly, parasites were maintained in RPMI 1640 medium containing 10% positive human serum + erythrocytes (5% haematocrit), 2.5% sodium bicarbonate and 11 µg/mL gentamicin at 37 °C with 5% CO2, 5% O2 and 90% N2. Gametocyte cultures were set up at 0.1% parasitaemia and on days 9–10 treated with 50 mM N-acetylglucosamine (NAG) to block further asexual growth. Stage III–V gametocytes were isolated by Percoll density gradient centrifugation on day 12 and returned to culture for 24 h before being used in the assay. At the time of the assay over 73% of the gametocytes were stage IV or V (Additional file 1). HepG2 cells (ATCC, cat. no. 77400) were cultured in 175-cm^2 tissue culture flasks with 30 ml growth medium at 37 °C in a 5% CO2 and 5% O2 humidified atmosphere. Growth medium was made with Dulbecco’s Modified Eagle Medium with 10% fetal bovine serum (FBS). Growth medium was replaced every other day and cells were passaged at 75% confluence.
Drug activity on asexual stage parasites was tested using a SYBR Green assay as described previously. Briefly, 2.5 μL/well complete culture medium was dispensed into each well of 1536-well plates using the Multidrop Combi followed by 23 nL compound transferring using the NX-TR Pintool. Parasites were diluted to 0.5% parasitaemia in complete culture medium with 2% haematocrit and drugs diluted in DMSO (≤0.5%). The pre-diluted parasites were dispensed into a 1536-well plate (2.5 μL/well). After 72 h incubation under the standard culture conditions, 5 μL/well of lysis buffer containing SYBR Green I was added to the parasite culture and incubated for 30 min at room temperature. The fluorescence of each well was measured in a fluorescence detection mode (Ex = 490 nm, Em = 520 nm) using a ViewLux plate reader (PerkinElmer).

PIK3CD = molecular target: T1, PIK3CD (Homo sapiens, UniProt O00329); experiment: Kinome scan profile; type: binding; settings: 10 μM
T1 construct: purchased DiscoverX (KINOMEscan)
T1 sequence (O00329 1-1044): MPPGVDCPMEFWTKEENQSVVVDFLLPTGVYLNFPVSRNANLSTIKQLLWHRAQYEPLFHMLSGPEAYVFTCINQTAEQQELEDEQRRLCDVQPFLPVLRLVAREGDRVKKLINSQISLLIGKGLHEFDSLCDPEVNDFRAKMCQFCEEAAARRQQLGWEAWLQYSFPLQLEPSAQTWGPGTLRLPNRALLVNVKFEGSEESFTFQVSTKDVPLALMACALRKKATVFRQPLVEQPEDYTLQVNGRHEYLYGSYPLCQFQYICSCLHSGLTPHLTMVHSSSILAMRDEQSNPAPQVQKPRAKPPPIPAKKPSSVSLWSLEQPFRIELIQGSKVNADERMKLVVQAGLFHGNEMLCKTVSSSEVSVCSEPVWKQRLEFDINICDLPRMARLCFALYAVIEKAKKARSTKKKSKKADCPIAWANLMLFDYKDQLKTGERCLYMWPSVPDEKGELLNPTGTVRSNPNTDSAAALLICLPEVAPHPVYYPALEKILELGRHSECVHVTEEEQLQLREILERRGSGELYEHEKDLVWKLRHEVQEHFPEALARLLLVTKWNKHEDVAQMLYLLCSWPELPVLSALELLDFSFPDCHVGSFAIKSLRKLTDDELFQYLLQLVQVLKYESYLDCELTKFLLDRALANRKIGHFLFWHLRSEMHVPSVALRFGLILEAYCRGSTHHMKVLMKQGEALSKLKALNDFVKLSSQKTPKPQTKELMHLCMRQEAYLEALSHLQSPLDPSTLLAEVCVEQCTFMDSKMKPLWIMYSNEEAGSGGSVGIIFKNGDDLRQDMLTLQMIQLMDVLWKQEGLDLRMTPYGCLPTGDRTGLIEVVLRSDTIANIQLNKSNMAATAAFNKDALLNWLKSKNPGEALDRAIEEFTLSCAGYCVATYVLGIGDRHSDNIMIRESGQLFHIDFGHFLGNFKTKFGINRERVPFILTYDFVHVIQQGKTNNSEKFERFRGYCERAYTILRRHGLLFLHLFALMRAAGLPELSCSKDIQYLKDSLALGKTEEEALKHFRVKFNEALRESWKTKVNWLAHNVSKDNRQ

CDK4-cyclinD3 = molecular target: T2, CDK4-cyclinD3 (Homo sapiens, UniProt P11802); experiment: Kinome scan profile; type: binding; settings: 10 μM
T2 construct: purchased DiscoverX (KINOMEscan)

IKK-epsilon = molecular target: T3, IKK-epsilon (Homo sapiens, UniProt Q14164); experiment: Kinome scan profile; type: binding; settings: 10 μM
T3 construct: purchased DiscoverX (KINOMEscan)
T3 sequence (Q14164 1-716): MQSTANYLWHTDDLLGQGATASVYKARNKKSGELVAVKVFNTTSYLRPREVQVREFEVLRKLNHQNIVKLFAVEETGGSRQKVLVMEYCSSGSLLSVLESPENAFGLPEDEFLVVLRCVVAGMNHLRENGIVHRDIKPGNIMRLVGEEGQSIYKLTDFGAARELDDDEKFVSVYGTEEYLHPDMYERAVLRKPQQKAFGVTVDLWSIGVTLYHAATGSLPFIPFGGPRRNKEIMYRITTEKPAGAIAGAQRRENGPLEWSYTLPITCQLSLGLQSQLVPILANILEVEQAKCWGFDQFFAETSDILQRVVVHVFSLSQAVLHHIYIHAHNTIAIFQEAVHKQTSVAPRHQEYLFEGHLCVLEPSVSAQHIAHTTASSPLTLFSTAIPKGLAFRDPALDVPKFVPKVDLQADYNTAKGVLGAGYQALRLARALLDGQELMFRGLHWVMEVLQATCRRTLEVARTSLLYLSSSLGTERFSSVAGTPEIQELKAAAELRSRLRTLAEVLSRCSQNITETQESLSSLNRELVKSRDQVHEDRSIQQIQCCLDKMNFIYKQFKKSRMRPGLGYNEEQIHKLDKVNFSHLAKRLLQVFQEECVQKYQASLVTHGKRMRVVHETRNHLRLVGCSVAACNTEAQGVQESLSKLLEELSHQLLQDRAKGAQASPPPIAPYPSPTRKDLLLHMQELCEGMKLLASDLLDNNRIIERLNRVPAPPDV

T2 sequence (P11802 whole entry): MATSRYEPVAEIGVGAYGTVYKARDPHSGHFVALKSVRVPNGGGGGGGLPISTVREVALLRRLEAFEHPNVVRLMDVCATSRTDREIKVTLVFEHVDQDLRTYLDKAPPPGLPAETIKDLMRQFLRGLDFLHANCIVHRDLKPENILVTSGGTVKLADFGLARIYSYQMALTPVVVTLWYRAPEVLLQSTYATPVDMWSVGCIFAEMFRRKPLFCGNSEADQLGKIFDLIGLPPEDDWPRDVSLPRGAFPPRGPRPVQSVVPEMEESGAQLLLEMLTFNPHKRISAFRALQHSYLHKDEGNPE
T2 sequence (P30281 whole entry partner): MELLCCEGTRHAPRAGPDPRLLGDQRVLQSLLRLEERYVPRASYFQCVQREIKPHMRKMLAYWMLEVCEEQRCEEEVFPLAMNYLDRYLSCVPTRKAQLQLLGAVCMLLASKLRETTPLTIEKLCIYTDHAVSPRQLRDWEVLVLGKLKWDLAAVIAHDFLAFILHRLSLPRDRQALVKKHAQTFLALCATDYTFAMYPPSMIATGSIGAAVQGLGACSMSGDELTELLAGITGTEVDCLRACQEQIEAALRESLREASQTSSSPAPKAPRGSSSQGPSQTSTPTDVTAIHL

IC50 [1]: 339 nM and 340 nM
% Control, PIK3CD (PIK3CD): 10 % Control
% Control, CDK4-cyclinD3 (CDK4-cyclinD3): 15 % Control
% Control, IKK-epsilon (IKK-epsilon): 31 % Control
Structure (SMILES): CCN1CCN(Cc2c(O)ccc3c(=O)c(Oc4ccccc4C(C)C)c(C(F)(F)F)oc23)CC1 [NCGC00100599]
